According to publication PMC9736344, “Discovery of a Novel Bloom’s Syndrome Protein (BLM) Inhibitor Suppressing Growth and Metastasis of Prostate Cancer” (International Journal of Molecular Sciences, 2022):

What was measured:
[1] = molecular target: T1, Bloom's syndrome protein (BLM) helicase (Homo sapiens, UniProt P54132); assay: fluorescence polarization DNA-binding and unwinding assays, EMSA, malachite green ATPase assay with purified BLM642-1290; CD spectral change; type: biochemical
T1 construct: BLM 642-1290
T1 sequence (P54132 642-1290): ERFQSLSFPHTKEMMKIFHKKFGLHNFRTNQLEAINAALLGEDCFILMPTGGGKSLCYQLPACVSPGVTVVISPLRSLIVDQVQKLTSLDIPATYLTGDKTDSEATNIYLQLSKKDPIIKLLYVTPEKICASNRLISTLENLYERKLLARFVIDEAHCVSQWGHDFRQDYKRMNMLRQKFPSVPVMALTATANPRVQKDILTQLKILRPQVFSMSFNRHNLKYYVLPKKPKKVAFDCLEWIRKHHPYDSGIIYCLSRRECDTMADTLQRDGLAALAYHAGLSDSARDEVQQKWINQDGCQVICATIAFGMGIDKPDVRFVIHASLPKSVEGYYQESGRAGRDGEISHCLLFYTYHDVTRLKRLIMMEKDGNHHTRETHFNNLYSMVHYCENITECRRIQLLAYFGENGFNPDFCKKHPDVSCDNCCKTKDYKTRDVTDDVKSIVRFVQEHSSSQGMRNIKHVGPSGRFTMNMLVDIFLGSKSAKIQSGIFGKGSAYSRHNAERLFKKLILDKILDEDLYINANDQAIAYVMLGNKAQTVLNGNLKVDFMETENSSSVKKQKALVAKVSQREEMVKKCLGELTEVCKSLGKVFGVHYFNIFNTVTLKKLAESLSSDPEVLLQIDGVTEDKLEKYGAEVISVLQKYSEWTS

[2] = molecular target: T1, Bloom's syndrome protein (BLM) helicase; assay: biochemical; design: fluorescence polarization; displacement of fluorescein-dsDNA bound to BLM642-1290; relative DNA binding activity; settings: dsDNA binding; read-out: % of control remaining
Protocol: First, fluorescein-labeled dsDNA (2 nM) was added into a reaction buffer (20 mM Tris, 25 mM NaCl, 3 mM MgCl2, 0.1 mM DTT, pH 7.9) to detect the fluorescence anisotropy until it was stable. Then, 500 nM BLM^642−1290 was added to equilibrate the DNA substrate, and the fluorescence anisotropy value was then detected. Finally, small molecules with a concentration of 10 μM were added, and the fluorescence anisotropy value was detected until it was stable. The total reaction volume was adjusted to 150 μL by adjusting with ddH2O volume. The ability of AO/854 to inhibit the ability of the BLM^642−1290 to bind to dsDNA and ssDNA was also assessed using a fluorescence polarization assay. The method used was similar to that described above, except different concentrations of AO/854 were added to the reaction. By using the same protocol, we detected AO/854 affecting DNA unwinding of BLM^642−1290. The 0–50 μM concentrations of AO/854 were added to the reaction. In the final step, 0.2 mM of ATP was added to the reaction. The fluorescence anisotropy value was detected until it was stable. The inhibiting ratio of BLM on DNA binding activity and DNA unwinding activity was determined. By using high-throughput virtual and protein-based screening assays, we discovered an isobenzofuranone compound with the desired properties. The flow chart of our work is as follows (Figure 2A). Before the first round of docking using the Autodock Vina, an optimized database (approximately 200,000 compounds) was achieved by filtering using Lipinski’s rule of five and Veber rules and removing duplicate molecules from the Specs database (Figure S1). The top 1000 compounds from the previous step were docked with Autodock (Figure S2). The top 30 small molecules (Table S1) obtained through virtual screening were dissolved in DMSO and prepared into mother liquor at a concentration of 20 mM. We purified a truncated structure of BLM that retained helicase activity in vitro (Figure S3), selected a fluorescein-labeled dsDNA as a substrate, and used a fluorescence polarization assay to determine if the promising compounds disrupted the binding between BLM and DNA.

SMILES	IC50 [1] [µM]	remaining activity at 10 µM [2] [%]
Cc1cc(C2(c3ccc(O)c(C)c3)OC(=O)c3ccccc32)ccc1O [AO/854, AO/854/43447428]	< 10	–
O=[N+]([O-])c1ccc(S(=O)(=O)Oc2ccc(C3(c4ccc(OS(=O)(=O)c5ccc([N+](=O)[O-])cc5)cc4)c4ccccc4-c4ccccc43)cc2)cc1 [compound 1]	–	98.9
Cc1cc(C2(c3ccc(O)c(C)c3)OC(=O)c3ccccc32)ccc1O [compound 2]	–	31.5
Cc1ccc(-c2csc3nc(SCC(=O)Nc4cccc5ccccc45)n(-c4ccccc4)c(=O)c23)o1 [compound 3]	–	94.9
CCCCC(OC(=O)c1ccc(N2C(=O)C3C4c5ccccc5C(c5ccccc54)C3C2=O)cc1)C(=O)c1ccc(-c2ccccc2)cc1 (centres unmarked) [compound 10]	–	103

Results, then the compound that gave them:

IC50 [1] [µM]	remaining activity at 10 µM [2] [%]	SMILES
–	93.9	Cc1ccc(-c2csc3nc(SCC(=O)Nc4ccc(C)c(C)c4)n(-c4ccccc4)c(=O)c23)o1 [compound 19]
–	96.6	O=C1c2cc(S(=O)(=O)Nc3cccc4ccccc34)ccc2-c2ccc(S(=O)(=O)Nc3cccc4ccccc34)cc21 [compound 20]
–	97.3	CC(=O)Nc1ccc(N2C(=O)c3ccc(C(=O)c4ccc5c(c4)C(=O)N(c4ccc(NC(C)=O)cc4)C5=O)cc3C2=O)cc1 [compound 28]
